In data set [1] the target is T1, human Gluocorticoid receptor (GR) (Homo sapiens, UniProt P04150).
T1 construct: expressed in transfected cells; host or cells: GeneBLAzer UAS-bla HEK 293T
T1 sequence (P04150 524-758 limits assumed): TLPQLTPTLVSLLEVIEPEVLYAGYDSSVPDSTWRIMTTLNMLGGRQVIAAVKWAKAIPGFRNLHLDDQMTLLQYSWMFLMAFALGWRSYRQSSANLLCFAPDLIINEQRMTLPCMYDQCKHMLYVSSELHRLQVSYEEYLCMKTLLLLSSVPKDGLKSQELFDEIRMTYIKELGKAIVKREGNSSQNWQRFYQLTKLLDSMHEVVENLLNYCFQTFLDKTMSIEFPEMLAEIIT
The experiment in a line: GR antagonist assay (GeneBLAzer beta-lactamase reporter, GR-UAS-bla HEK 293T cells, dexamethasone as agonist). To be noted: for antagonist effect on GR (in words) / GR inhibition: against dexamethasone; for GR inhibition: at 10 μM. Type of data set: cell-based. As to the method:
An antagonist assay for GR was performed.
These cells stably express a beta-lactamase reporter gene under the transcriptional control of an upstream activator sequence (UAS). When an agonist binds to the LBD of the GAL4 (DBD)-GR (LBD) fusion protein, the protein binds to the UAS, resulting in expression of beta-lactamase.
32 μL of cell suspension is added to the wells and pre-incubated at 37° C./5% CO2 in a humidified incubator with compounds and control antagonist titration for 30 minutes. 4 μL of 10× control agonist. Dexamethasone at the pre-determined EC80 concentration is added to wells containing the control antagonist or compounds. The plate is incubated for 16-24 hours at 37° C./5% CO2 in a humidified incubator. 8 μL of 1 μM Substrate Loading Solution is added to each well and the plate is incubated for 2 hours at room temperature. The plate is read on a fluorescence plate reader.

For data set [2], the system named is triple negative breast adenocarcinoma cell line MDA-MB-231. Put plainly: Cytotoxicity by the MTT method. To be noted: MDA-MB-231, 72 h, read-out: EC50 (cytotoxic effect).
Method: For that purpose the cytotoxic effects (EC50) of fucoxanthin (063-06691, Wako Chemicals) alone and combined with paclitaxel (T1912, Sigma-Aldrich) on the triple negative breast adenocarcinoma cell line MDA-MB-231 (ECACC: 92020424) were assessed.
In a first setup, MDA-MB-231 cells were seeded in 96 well plates with 100 μL of DMEM +10% FBS and incubated at 37° C., 5% CO2 and 90% humidity. After 24 hours, with a confluence and viability of between 80 and 90% as assessed by trypan blue test, cells were treated with serial dilutions (1:3) in DMEM+10% FBS of fucoxanthin solubilized in DMSO ranging from 100 μM to 15.2 nM.
In a second setup, MDA-MB-231 cells were seeded in 96 well plates with 100 μL of DMEM +10% FBS and incubated at 37° C., 5% CO2 and 90% humidity. After 24 hours, with a confluence and viability of between 80 and 90% as assessed by trypan blue test, cells were treated with serial dilutions (1:3) of paclitaxel in DMEM+10% FBS ranging from 1 μM to 0.15 nM or with both the same concentrations of paclitaxel plus a fixed subtoxic concentration of fucoxanthin (1 μM) solubilized in DMSO (100 μM).
Data set [3] concerns the target T2, progesterone receptors (PR) (Homo sapiens, UniProt P06401).
T2 sequence (P06401 679-933 limits assumed): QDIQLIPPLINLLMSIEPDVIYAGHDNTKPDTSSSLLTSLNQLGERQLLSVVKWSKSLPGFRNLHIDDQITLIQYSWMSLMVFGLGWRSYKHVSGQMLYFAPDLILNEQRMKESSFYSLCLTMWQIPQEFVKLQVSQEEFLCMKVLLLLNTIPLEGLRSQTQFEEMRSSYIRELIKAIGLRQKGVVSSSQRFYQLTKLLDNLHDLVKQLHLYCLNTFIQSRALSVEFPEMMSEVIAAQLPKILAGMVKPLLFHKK
Put plainly: PR antagonist assay (GeneBLAzer beta-lactamase reporter, UAS-bla HEK 293T cells, R5020 as agonist). Type of data set: cell-based. The note with it: for antagonist action on PR (in words): against promegestone (R5020). As to the method:
An antagonist assay for PR was performed. In this assay, an engineered cell line (UAS-bla HEK 293T) expressing PR is used to test the action of two xanthophylls. The detection method consists in GeneBLAzer® technology, based on mammalian-optimized Beta-lactamase reporter gene (bla) combined with a FRET-enabled substrate.
In FIG. 7, neoxanthin and fucoxanthin were tested against the agonist promegestone (R5020).

The subject of a further data set is HaCat cell line. The experiment in a line: Hydrocortisone-induced DNA damage assay (HCS DNA Damage kit, phosphorylated H2AX). Type of data set: cell-based, human. The note with it: compounds at 0.1 μM, 1 h before 10 μM hydrocortisone. How it is done:
HaCat cell line, a spontaneously transformed aneuploid immortal keratinocyte cell line from adult human skin was used. Keratinocytes were cultured in DMEM medium supplemented with 10% FCS. […] Assays were performed with cells between 80% and 90% of confluence and with a cell viability above 90% (tested by trypan blue staining). 20000 cells per experimental condition were seeded in 24 well plates with 1 mL of medium for 24 h. Culture medium was substituted for not supplemented DMEM and after a 24 hour incubation, compounds were added at 0.1 μM to assay wells. […] Plate was incubated for 30 min before the DNA extraction. DNA damage was quantified using the HCS DNA Damage kit (ThermoFisher®). “The HCS DNA Damage kit simultaneously and quantitatively measures two important cell-health parameters: DNA damage and cytotoxicity. DNA damage is detected using an antibody against phosphorylated H2AX (Ser139) which is induced in response to double-strand break (DSB) formation”. Plate was read using Fluoroscan at 355-460 nm for Hoechst (cell number) and 485-538 nm for the secondary antibody (DNA damage). Background is subtracted and relativized with values obtained from Hoechst staining in order to obtain the value of DNA damage relative to the cell count of each well. Results were normalized using the basal values.

In data set [4] the test system is p53 in HaCat keratinocytes. Put plainly: p53 quantification by ELISA after hydrocortisone (Human Total p53 DuoSet IC ELISA). The note with it: compounds at 0.1 and 1 μM, 1 h before 10 μM hydrocortisone, 2 h. Type of data set: cell-based. How it is done: HaCat keratinocytes were cultured in DMEM medium supplemented with 10% FCS. […] Assays were performed with cells between 80% and 90% of confluence and with a cell viability above 90% (tested by trypan blue staining). 20000 cells per experimental condition were seeded in 24 well plates with 1 mL of medium for 24h. Culture medium was substituted for not supplemented DMEM and after a 24 hour incubation, compounds were added at 0.1 and 1 μM to assay wells. […] Cells were lysed in 100 μL of lysis buffer and 5 μg of total cell extract were used for the quantitative ELISA. Optical density was measured at 450 nm and background was subtracted.
(In general: An ELISA detects its analyte on a solid surface through an enzyme-linked reagent.)

Like-named read-outs stand apart in the source and are kept apart here.

Take `CC1=C(/C=C/C(C)=C/C=C/C(C)=C/C=C/C=C(C)/C=C/C=C(C)/C=C/C2=C(C)C(=O)[C@@H](O)CC2(C)C)C(C)(C)C[C@H](O)C1=O` [astaxanthin]: the “antagonist effect on GR (in words)” value in data set [1] is listed as “neither compounds exercise an antagonist effect on GR”.
With `CC1=C(/C=C/C(C)=C/C=C/C(C)=C/C=C/C=C(C)/C=C/C=C(C)/C=C/C2=C(C)CCCC2(C)C)C(C)(C)CCC1` [beta-carotene], the “antagonist effect on GR (in words)” value in data set [1] is given as “neither compounds exercise an antagonist effect on GR”.
In general, EC50 refers to the concentration giving half of the maximal effect. On to `CC(=O)O[C@H]1C(=O)[C@@]2(C)[C@H]([C@H](OC(=O)c3ccccc3)[C@]3(O)C[C@H](OC(=O)[C@H](O)[C@@H](NC(=O)c4ccccc4)c4ccccc4)C(C)=C1C3(C)C)[C@]1(OC(C)=O)CO[C@@H]1C[C@@H]2O` [paclitaxel, reference compound], for which, in data set [2] (Homo sapiens), the half-maximal effective concentration (EC50) turned out to be 0.0044 µM.
Regarding `CC(=C/C=C/C(C)=C/C=C/C=C(C)/C=C/C=C(\C)C=C=C1C(C)(C)C[C@H](O)C[C@@]1(C)O)/C=C/[C@@]12O[C@]1(C)C[C@@H](O)CC2(C)C` [neoxanthin], in data set [1], the “antagonist effect on GR (in words)” value was “total antagonist” and the GR inhibition entry is recorded as “above 85%”. Besides, the “antagonist action on PR (in words)” value in data set [3] is recorded as “None of them showed an important antagonist action”. The “protection of DNA from hydrocortisone-induced damage (in words)” value in the data set with HaCat cell line is given as “capable of protecting DNA”. For the same compound, the “p53 expression in the presence of hydrocortisone (in words)” value in data set [4] is listed as “increase p53 expression”.
Turning to fucoxanthin, in data set [1], the “antagonist effect on GR (in words)” value is given as “parcial antagonist” and the GR inhibition amounted to 50%. Moreover, the “concentration from which compound acts as GR antagonist” value in data set [1] (against dexamethasone (FIG. 5)) is recorded as 30 nM. Further, the “antagonist action on PR (in words)” value in data set [3] is given as “None of them showed an important antagonist action”. In data set [3] (at the highest concentration tested, against R5020), this compound showed a PR inhibition of 30%. Also, in the data set on HaCat cell line, the “protection of DNA from hydrocortisone-induced damage (in words)” value is listed as “capable of protecting DNA”. In addition, the “p53 expression in the presence of hydrocortisone (in words)” value in data set [4] is “increase p53 expression”. In data set [2] (MTT, fucoxanthin alone), the 50% effective concentration (EC50) was 7.46 µM.
With `C\C(C=C=C1C(C)(C)C[C@H](O)C[C@@]1(C)O)=C/C=C/C(C)=C/C=C/C=C(C)/C=C/C=C(\C)C(=O)/C=C1\C(C)(C)C[C@H](O)C[C@@]1(C)O` [iso-fucoxanthinol], the “maximum GR inhibition” value in data set [1] (at 10 mM (so in the source), against dexamethasone (FIG. 6)) is recorded as 80%.

Values taken from patent US11622946B2, “Uses of a carotenoid in the treatment or prevention of stress induced conditions” (GREENALTECH, S.L., priority 2016, dated 2023).
